Common to all, as to format: in vivo
The subject of assay [1] is large crabgrass (Digitaria sanquinalis L.). The assay is described as follows: Test Example 29: pot, soil treatment, metobromuron + indanofan. The conditions noted are these: soil treatment, pot, 20th day after treatment, read-out: Growth inhibition rate of large crabgrass (%) Measured value. The source says: (§1) When the herbicidal activity in a case where two active ingredients are combined, is larger than the simple sum of the respective herbicidal activities of the two active ingredients (the expected activity), it is called a synergistic effect. The activity expected by the combination of two active ingredients can be calculated as follows (Colby S. R., “Weed”, vol. 15, p. 20-22, 1967). E=α+β−(α×β[…]) where α: growth inhibition rate when treated with x (g/ha) of herbicide X, • β: growth inhibition rate when treated with y (g/ha) of herbicide Y, • E: growth inhibition rate expected when treated with x (g/ha) of herbicide X and y (g/ha) of herbicide Y.
(§2) On the 19th day after treatment, the state of growth of barnyardgrass was visually observed and evaluated in accordance with the following standards. The growth inhibition rate (%) [measured value] and the growth inhibition rate (%) [calculated value] calculated by the Colby's method, are shown in Table 2.
(§3) Growth inhibition rate (%)=inhibition rate) (%) of 0 (equivalent to the non-treated area) to 100 (complete kill)
Soil was put into a 1/300,000 ha pot, and seeds of large crabgrass (Digitaria sanquinalis L.) were sown. On the day after seeding, predetermined amounts of SC containing metobromuron as active ingredient (same as in Test Example 1) and WP containing indanofan as active ingredient were diluted with water corresponding to 1,000 L per hectare and applied for soil treatment.
On the 20th day after treatment, the state of growth of large crabgrass was visually observed and evaluated in the same manner as in Test Example 1.

Assay [2] has as its system black nightshade (Solanum nigrum L.). The assay is described as follows: Test Example 27: pot, soil treatment, metobromuron + flufenacet. The following applies: soil treatment, pot, 21st day after treatment, read-out: Growth inhibition rate of black nightshade (%) Measured value.
Text: as §1, §2, §3
(§4) Soil was put into a 1/300,000 ha pot, and seeds of black nightshade (Solanum nigrum L.) were sown. On the day after seeding, predetermined amounts of SC containing metobromuron as active ingredient (same as in Test Example 1) and EC containing prosulfocarb as active ingredient (trade name: BOXER NYUZAI, manufactured by Syngenta) were diluted with water corresponding to 1,000 L per hectare and applied for soil treatment.
(§5) On the 21st day after treatment, the state of growth of black nightshade was visually observed and evaluated in the same manner as in Test Example 1.
The test was carried out in the same manner as in Test Example 26 except that EC containing prosulfocarb as active ingredient was changed to SC containing flufenacet as active ingredient (trade name: Cadou, manufactured by Bayer CropScience), to obtain the results as shown in Table 28.

Assay [3] relates to large crabgrass (Diqitaria sanquinalis L.). In words: Test Example 22: pot, soil treatment, metobromuron + prometryn. The following applies: Digitaria sanguinalis, soil treatment, pot, 21st day after treatment, read-out: Growth inhibition rate of large crabgrass (%) Measured value.
Text: as §1, §2, §3
(§6) Soil was put into a 1/300,000 ha pot, and seeds of barnyardgrass (Echinochloa crus-qalli L.) were sown. On the day after seeding, predetermined amounts of SC containing metobromuron as active ingredient (same as in Test Example 1) and WP containing prometryn as active ingredient (trade name: Gesagard 50, manufactured by Nippon Kayaku Co., Ltd.) were diluted with water corresponding to 1,000 L per hectare and applied for soil treatment.
(§7) On the 21st day after treatment, the state of growth of barnyardgrass was visually observed and evaluated in the same manner as in Test Example 1.
The test was carried out in the same manner as in Test Example 21 except that barnyardgrass (Echinochloa crus-qalli L.) was changed to large crabgrass (Diqitaria sanquinalis L.), to obtain the results as shown in Table 23.

Assay [4] deals with barnyardgrass (Echinochloa crus-qalli L.). The assay is described as follows: Test Example 21: pot, soil treatment, metobromuron + prometryn. The conditions noted are these: soil treatment, pot, 21st day after treatment, read-out: Growth inhibition rate of barnyardgrass (%) Measured value.
Text: as §1, §2, §3, §6, §7

Assay [5] deals with black nightshade (Solanum nigrum L.). The assay is described as follows: Test Example 26: pot, soil treatment, metobromuron + prosulfocarb. The following applies: soil treatment, pot, 21st day after treatment, read-out: Growth inhibition rate of black nightshade (%) Measured value.
Text: as §1, §2, §3, §4, §5

Assay [6] has the same test system. In words: Test Example 14: pot, soil treatment, metobromuron + pyroxasulfone. The conditions noted are these: soil treatment, pot, 12th day after treatment, read-out: Growth inhibition rate of black nightshade (%) Measured value.
Text: as §1, §2, §3
Soil was put into a 1/300,000 ha pot, and seeds of black nightshade (Solanum nigrum L.) were sown. Prior to germination of black nightshade, predetermined amounts of SC containing metobromuron as active ingredient (same as in Test Example 1) and WG containing pyroxasulfone as active ingredient (same as in Test Example 13) were diluted with water corresponding to 1,000 L per hectare and applied for soil treatment.
On the 12th day after treatment, the state of growth of black nightshade was visually observed and evaluated in the same manner as in Test Example 1.

For assay [7], the system named is velvetleaf (Abutilon theophrasti MEDIC.). The assay is described as follows: Test Example 13: pot, soil treatment, metobromuron + pyroxasulfone. The conditions noted are these: soil treatment, pot, 12th day after treatment, read-out: Growth inhibition rate of velvetleaf (%) Measured value.
Text: as §1, §2, §3
Soil was put into a 1/300,000 ha pot, and seeds of velvetleaf (Abutilon theophrasti MEDIC.) were sown. Prior to germination of velvetleaf, predetermined amounts of SC containing metobromuron as active ingredient (same as in Test Example 1) and WG containing pyroxasulfone as active ingredient (trade name: Sakura 850 WG, manufactured by Bayer CropScience) were diluted with water corresponding to 1,000 L per hectare and applied for soil treatment.
On the 12th day after treatment, the state of growth of velvetleaf was visually observed and evaluated in the same manner as in Test Example 1.

In assay [8] the test system is black nightshade (Solanum nigrum L.). The assay is described as follows: Test Example 31: pot, soil treatment, metobromuron + thiobencarb. The following applies: soil treatment, pot, 20th day after treatment, read-out: Growth inhibition rate of black nightshade (%) Measured value.
Text: as §1, §2, §3
(§8) Soil was put into a 1/300,000 ha pot, and seeds of common lambsquarters (Chenopodium album L.) were sown. On the day after seeding, predetermined amounts of SC containing metobromuron as active ingredient (same as in Test Example 1) and EC containing thiobencarb as active ingredient (trade name: Saturn NYUZAI, manufactured by KUMIAI CHEMICAL INDUSTRY Co., Ltd.) were diluted with water corresponding to 1,000 L per hectare and applied for soil treatment.
(§9) On the 20th day after treatment, the state of growth of common lambsquarters was visually observed and evaluated in the same manner as in Test Example 1.
The test was carried out in the same manner as in Test Example 30 except that common lambsquarters (Chenopodium album L.) was changed to black nightshade (Solanum nigrum L.), to obtain the results as shown in Table 32.

The test system of assay [9] is common lambsquarters (Chenopodium album L.). The assay is described as follows: Test Example 30: pot, soil treatment, metobromuron + thiobencarb. The following applies: soil treatment, pot, 20th day after treatment, read-out: Growth inhibition rate of common lambsquarters (%) Measured value.
Text: as §1, §2, §3, §8, §9

On to `CCC1(CC2(c3cccc(Cl)c3)CO2)C(=O)c2ccccc2C1=O` (racemic) [Indanofan, (RS)-2-[2-(3-chlorophenyl)-2,3-epoxypropyl]-2-ethyl indane-1,3-dione], for which the inhibition at 25 g/ha in [1] (25 g/ha) turned out to be 25%. In addition, in assay [1] (37.5 g/ha), the inhibition at 37.5 g/ha is 25%. Besides, in assay [1] (56.3 g/ha), the inhibition at 56.3 g/ha is 28%.

`CC(C)N(C(=O)COc1nnc(C(F)(F)F)s1)c1ccc(F)cc1` [Flufenacet, 4′-fluoro-N-isopropyl-2-[5-(trifluoromethyl)-1,3,4-thiadiazol-2-yloxy] acetanilide]: the inhibition at 83.35 g/ha in assay [2] (83.35 g/ha) amounted to 30%. The inhibition at 125 g/ha in assay [2] (125 g/ha) was 25%. For the same compound, the inhibition at 187.5 g/ha in assay [2] (187.5 g/ha) came to 40%.

Turning to `CSc1nc(NC(C)C)nc(NC(C)C)n1` [Prometryn, N^2,N^4-diisopropyl-6-methylthio-1,3,5-triazine-2,4-diamine], the inhibition at 300 g/ha was found to be 62% in [3] (300 g/ha) and 15% in [4] (300 g/ha). The inhibition at 400 g/ha came out at 76% in assay [3] (400 g/ha) and 38% in assay [4] (400 g/ha).

Turning to `CCCN(CCC)C(=O)SCc1ccccc1` [Prosulfocarb, S-benzyl dipropyl(thiocarbamate)], the inhibition at 653.4 g/ha in assay [5] (653.4 g/ha) turned out to be 50%. Moreover, the inhibition at 980 g/ha in assay [5] (980 g/ha) was determined as 50%. In addition, the inhibition at 1470 g/ha in assay [5] (1470 g/ha) was determined as 50%.

With `Cn1nc(C(F)(F)F)c(CS(=O)(=O)C2=NOC(C)(C)C2)c1OC(F)F` [Pyroxasulfone, 3-[5-(difluoromethoxy)-1-methyl-3-(trifluoromethyl)pyrazol-4-ylmethylsulfonyl]-4,5-dihydro-5,5-dimethyl-1,2-oxazole], the results for the inhibition at 25 g/ha in assay [6] (25 g/ha) and in assay [7] (25 g/ha) were 50% and 25%, respectively. Also, the inhibition at 33 g/ha was 64% in assay [6] (33 g/ha) and 28% in assay [7] (33 g/ha). Besides, the inhibition at 50 g/ha in assay [6] (50 g/ha) is 73%; in [7] (50 g/ha) it was 38%.

On to `CCN(CC)C(=O)SCc1ccc(Cl)cc1` [Thiobencarb, S-4-chlorobenzyl diethyl(thiocarbamate)], for which the inhibition at 296.3 g/ha in assay [8] (296.3 g/ha) is 25%; in [9] (296.3 g/ha), 0%. Besides, the inhibition at 444.4 g/ha in assay [8] (444.4 g/ha) came to 23%; in [9] (444.4 g/ha), 0%. Also, the inhibition at 666.7 g/ha is 20% in [8] (666.7 g/ha) and 0% in assay [9] (666.7 g/ha).

Usually inhibition stands for how much of the control response was suppressed.

Source of the values: patent US9993001B2, “Herbicidal composition” (ISHIHARA SANGYO KAISHA, LTD., priority 2014, dated 2018).
